{"source": "PubChem BioAssay AID1259407", "about": "(Chemical Carcinogenesis Research Information System (CCRIS), 2018)", "system": "CCRIS mutagenicity, Ames/micronucleus/aberration tests", "experiment": "CCRIS mutagenicity studies", "key": {"[1]": {"details": "Test System: AMES SALMONELLA TYPHIMURIUM, Strain/Indicator: TA98, Metabolic Activation: NONE, Method: PREINCUBATION"}, "[2]": {"details": "Test System: AMES SALMONELLA TYPHIMURIUM, Strain/Indicator: TA100, Metabolic Activation: NONE, Method: PREINCUBATION"}}, "note": "Active and inactive are the calls of the source. The rule behind the calls is not given here."}
{"compound": "Nc1nc(-c2ccc([N+](=O)[O-])cc2)nc2nc[nH]c12", "values": [{"measurement": "mutagenic call", "setting": "Test System: AMES SALMONELLA TYPHIMURIUM, Strain/Indicator: TA98(1,8-DNP), Metabolic Activation: NONE, Method: PREINCUBATION", "value": "active; positive"}, {"measurement": "mutagenic call", "setting": "Test System: AMES SALMONELLA TYPHIMURIUM, Strain/Indicator: TA98(1,8-DNP), Metabolic Activation: RAT, LIVER, S-9, PCB, Method: PREINCUBATION", "value": "active; positive"}, {"measurement": "mutagenic call", "setting": "Test System: AMES SALMONELLA TYPHIMURIUM, Strain/Indicator: TA98(NR), Metabolic Activation: NONE, Method: PREINCUBATION", "value": "active; positive"}, {"measurement": "mutagenic call", "setting": "Test System: AMES SALMONELLA TYPHIMURIUM, Strain/Indicator: TA98(NR), Metabolic Activation: RAT, LIVER, S-9, PCB, Method: PREINCUBATION", "value": "active; positive"}, {"measurement": "mutagenic call", "setting": "[1]", "value": "active; positive"}, {"measurement": "mutagenic call", "setting": "Test System: AMES SALMONELLA TYPHIMURIUM, Strain/Indicator: TA98, Metabolic Activation: RAT, LIVER, S-9, PCB, Method: PREINCUBATION", "value": "active; positive"}, {"measurement": "mutagenic call", "setting": "Test System: AMES SALMONELLA TYPHIMURIUM, Strain/Indicator: TA100(1,8-DNP), Metabolic Activation: NONE, Method: PREINCUBATION", "value": "active; positive"}, {"measurement": "mutagenic call", "setting": "Test System: AMES SALMONELLA TYPHIMURIUM, Strain/Indicator: TA100(1,8-DNP), Metabolic Activation: RAT, LIVER, S-9, PCB, Method: PREINCUBATION", "value": "active; positive"}, {"measurement": "mutagenic call", "setting": "Test System: AMES SALMONELLA TYPHIMURIUM, Strain/Indicator: TA100(NR), Metabolic Activation: NONE, Method: PREINCUBATION", "value": "active; positive"}, {"measurement": "mutagenic call", "setting": "Test System: AMES SALMONELLA TYPHIMURIUM, Strain/Indicator: TA100(NR), Metabolic Activation: RAT, LIVER, S-9, PCB, Method: PREINCUBATION", "value": "active; positive"}, {"measurement": "mutagenic call", "setting": "[2]", "value": "active; positive"}, {"measurement": "mutagenic call", "setting": "Test System: AMES SALMONELLA TYPHIMURIUM, Strain/Indicator: TA100, Metabolic Activation: RAT, LIVER, S-9, PCB, Method: PREINCUBATION", "value": "active; positive"}, {"measurement": "mutagenic call", "setting": "Test System: AMES SALMONELLA TYPHIMURIUM, Strain/Indicator: YG1020, Metabolic Activation: NONE, Method: PREINCUBATION", "value": "active; positive"}, {"measurement": "mutagenic call", "setting": "Test System: AMES SALMONELLA TYPHIMURIUM, Strain/Indicator: YG1020, Metabolic Activation: RAT, LIVER, S-9, PCB, Method: PREINCUBATION", "value": "active; positive"}, {"measurement": "mutagenic call", "setting": "Test System: AMES SALMONELLA TYPHIMURIUM, Strain/Indicator: YG1021, Metabolic Activation: NONE, Method: PREINCUBATION", "value": "active; positive"}, {"measurement": "mutagenic call", "setting": "Test System: AMES SALMONELLA TYPHIMURIUM, Strain/Indicator: YG1021, Metabolic Activation: RAT, LIVER, S-9, PCB, Method: PREINCUBATION", "value": "active; positive"}, {"measurement": "mutagenic call", "setting": "Test System: AMES SALMONELLA TYPHIMURIUM, Strain/Indicator: YG1024, Metabolic Activation: NONE, Method: PREINCUBATION", "value": "active; positive"}, {"measurement": "mutagenic call", "setting": "Test System: AMES SALMONELLA TYPHIMURIUM, Strain/Indicator: YG1024, Metabolic Activation: RAT, LIVER, S-9, PCB, Method: PREINCUBATION", "value": "active; positive"}, {"measurement": "mutagenic call", "setting": "Test System: AMES SALMONELLA TYPHIMURIUM, Strain/Indicator: YG1025, Metabolic Activation: NONE, Method: PREINCUBATION", "value": "active; positive"}, {"measurement": "mutagenic call", "setting": "Test System: AMES SALMONELLA TYPHIMURIUM, Strain/Indicator: YG1025, Metabolic Activation: RAT, LIVER, S-9, PCB, Method: PREINCUBATION", "value": "active; positive"}, {"measurement": "mutagenic call", "setting": "Test System: AMES SALMONELLA TYPHIMURIUM, Strain/Indicator: YG1026, Metabolic Activation: NONE, Method: PREINCUBATION", "value": "active; positive"}, {"measurement": "mutagenic call", "setting": "Test System: AMES SALMONELLA TYPHIMURIUM, Strain/Indicator: YG1026, Metabolic Activation: RAT, LIVER, S-9, PCB, Method: PREINCUBATION", "value": "active; positive"}, {"measurement": "mutagenic call", "setting": "Test System: AMES SALMONELLA TYPHIMURIUM, Strain/Indicator: YG1029, Metabolic Activation: NONE, Method: PREINCUBATION", "value": "active; positive"}, {"measurement": "mutagenic call", "setting": "Test System: AMES SALMONELLA TYPHIMURIUM, Strain/Indicator: YG1029, Metabolic Activation: RAT, LIVER, S-9, PCB, Method: PREINCUBATION", "value": "active; positive"}]}
{"compound": "Nn1nnc2c([nH]c3ccccc32)c1=O", "values": [{"measurement": "mutagenic call", "setting": "Test System: AMES SALMONELLA TYPHIMURIUM, Strain/Indicator: TA97, Metabolic Activation: NONE, Method: PREINCUBATION", "value": "active; positive"}, {"measurement": "mutagenic call", "setting": "Test System: AMES SALMONELLA TYPHIMURIUM, Strain/Indicator: TA97, Metabolic Activation: S-9 (10%), Method: PREINCUBATION", "value": "active; positive"}, {"measurement": "mutagenic call", "setting": "[1]", "value": "active; positive"}, {"measurement": "mutagenic call", "setting": "Test System: AMES SALMONELLA TYPHIMURIUM, Strain/Indicator: TA98, Metabolic Activation: S-9 (10%), Method: PREINCUBATION", "value": "active; positive"}, {"measurement": "mutagenic call", "setting": "[2]", "value": "active; positive"}, {"measurement": "mutagenic call", "setting": "Test System: AMES SALMONELLA TYPHIMURIUM, Strain/Indicator: TA100, Metabolic Activation: S-9 (10%), Method: PREINCUBATION", "value": "active; positive"}, {"measurement": "mutagenic call", "setting": "Test System: AMES SALMONELLA TYPHIMURIUM, Strain/Indicator: TA102, Metabolic Activation: NONE, Method: PREINCUBATION", "value": "active; positive"}, {"measurement": "mutagenic call", "setting": "Test System: AMES SALMONELLA TYPHIMURIUM, Strain/Indicator: TA102, Metabolic Activation: S-9 (10%), Method: PREINCUBATION", "value": "active; positive"}]}
{"compound": "[Cl-].[Cl-].[Cl-].[Cr+3].c1cnc2c(c1)ccc1cccnc12.c1cnc2c(c1)ccc1cccnc12", "values": [{"measurement": "mutagenic call", "setting": "Test System: AMES SALMONELLA TYPHIMURIUM, Strain/Indicator: TA100, Metabolic Activation: NONE, Method: STANDARD PLATE", "value": "active; positive"}]}
{"compound": "COc1cc2c(c3oc4cccc(OC(C)=O)c4c(=O)c13)C1C=COC1O2", "note": "(stereo unspecified)", "values": [{"measurement": "mutagenic call", "setting": "Test System: AMES SALMONELLA TYPHIMURIUM, Strain/Indicator: TA98, Metabolic Activation: RAT, LIVER, S-9, PHENOBARBITAL, Method: STANDARD PLATE", "value": "inactive; negative"}, {"measurement": "mutagenic call", "setting": "Test System: AMES SALMONELLA TYPHIMURIUM, Strain/Indicator: TA100, Metabolic Activation: RAT, LIVER, S-9, PHENOBARBITAL, Method: STANDARD PLATE", "value": "active; positive"}]}
{"compound": "ONc1ccc(Br)cc1", "values": [{"measurement": "mutagenic call", "setting": "Test System: E. COLI, Strain/Indicator: WP2 UVRA, Metabolic Activation: NONE, Method: FLUCTUATION TEST", "value": "inactive; negative"}]}
